The source of these data is patent US5580775A, “High affinity, brain-specific nucleic acids encoding a L-proline transporter, and vectors, and host cells comprising the same” (Emory University, priority 1992, dated 1996).

By Ki is commonly meant a measure of affinity in units of concentration, obtained from inhibition or displacement. What is called Km is the concentration of substrate that gives half-maximal velocity.

Where two headings read alike, the source gives them in different places. Peptide text beside a SMILES is read from it.

For data set [1], the target named is T1, rat brain L-proline transporter (Rattus norvegicus, UniProt P28573).
T1 sequence (P28573 1-637): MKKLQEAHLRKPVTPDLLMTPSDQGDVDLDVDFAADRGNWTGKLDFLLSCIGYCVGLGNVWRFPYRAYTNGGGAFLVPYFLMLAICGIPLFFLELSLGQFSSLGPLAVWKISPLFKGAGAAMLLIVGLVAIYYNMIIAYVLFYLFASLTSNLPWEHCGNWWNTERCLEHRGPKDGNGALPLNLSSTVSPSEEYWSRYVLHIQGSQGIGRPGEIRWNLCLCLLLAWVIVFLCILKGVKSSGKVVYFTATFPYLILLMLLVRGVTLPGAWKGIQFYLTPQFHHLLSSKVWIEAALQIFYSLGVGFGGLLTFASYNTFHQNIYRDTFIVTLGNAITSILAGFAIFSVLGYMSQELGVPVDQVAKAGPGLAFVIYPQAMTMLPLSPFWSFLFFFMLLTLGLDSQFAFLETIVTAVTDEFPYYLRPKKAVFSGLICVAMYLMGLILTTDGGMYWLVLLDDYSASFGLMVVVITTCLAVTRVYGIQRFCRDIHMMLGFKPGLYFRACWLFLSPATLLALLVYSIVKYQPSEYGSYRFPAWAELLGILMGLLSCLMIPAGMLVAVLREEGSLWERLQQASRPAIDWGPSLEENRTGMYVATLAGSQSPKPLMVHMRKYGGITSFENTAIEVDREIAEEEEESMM
The experiment in a line: cell-based.

A further data set concerns rat brain synaptosomes. To be noted: cited from earlier work.
Data set [2] deals with T2, high affinity, Na^+ -dependent rat brain L-proline transporter (Rattus norvegicus, UniProt P28573).
T2 sequence (P28573 1-637): T1 sequence (P28573 1-637)
The experiment in a line: L-proline uptake (saturation kinetics, Na+ dependence) in HeLa cells transfected with pPROT.

Data set [3] has as its target T1, rat brain L-proline transporter. The experiment in a line: Transport of L-[3H]glutamate or D-[3H]aspartate in HeLa fibroblasts expressing the transporter cDNA. The class given is cell-based. As to conditions: transient expression in HeLa fibroblasts.
Substrate in data set [4]: O=C(O)[C@@H]1CCCN1
Put plainly: cells, lysate or membranes. To be noted: other: 20 min incubation, 50 nM L-[3H]proline plus unlabeled L-proline, HeLa cells transfected with pPROT.

Where [5] appears, read: read-out: Ki values in excess of 100 μM (inhibition of proline uptake).
Where [6] appears, read: Ki (inhibition of proline uptake).
The mark [7] stands for this setting: read-out: Ki (inhibition of proline uptake).

`NCC(=O)N1CCC[C@H]1C(=O)O` [Glycylproline] (H-Gly-Pro-OH): the Ki in data set [1] (setting [5]) is over 100 µM. Same read-out and setting: the value for `CC[C@H](C)[C@H](N)C(=O)O` [L-Isoleucine] was over 100 µM; that for `C=C(C)[C@H]1CN[C@H](C(=O)O)[C@H]1CC(=O)O` [Kainic acid] was over 100 µM.

`O=C(O)C1C=CCN1` (stereo not drawn) [3,4-Dehydroproline] came in with a Ki in data set [1] (setting [6]) of 31 µM. Consider `O=C(O)[C@@H]1CCCN1` [L-proline], for which the “endogenous L-proline transport as percent of pPROT-induced transport” value with HeLa cells is reported as “less than 10%”. Moreover, the Michaelis constant (Km) with HeLa cells (read-out: Km of endogenous L-proline transport, plasmid vector-transfected HeLa cells) is over 200 µM; in the data set on rat brain synaptosomes (read-out: Km, high affinity component, high affinity) it was 6 to 12 µM; with rat brain synaptosomes (read-out: Km, low affinity component, low affinity), over 190 µM; in data set [2] (read-out: apparent Michaelis constant (Km), 20 min incubation, 50 nM L-[3H]proline plus unlabeled L-proline, HeLa cells transfected with pPROT), about 9.7 µM. For the same molecule, in data set [2] (Na+ dependence, choline chloride), the “specific L-proline uptake upon isotonic substitution of NaCl with choline chloride” value is given as “abolished”. As for `CSCC[C@H](N)C(=O)O` [L-Methionine], the Ki in data set [1] (setting [5]) is over 100 µM. On to `N[C@]1(C(=O)O)CC[C@H](C(=O)O)C1` (relative stereo) [Trans-ACPD, trans1-aminocyclopentane-1,3-dicarboxylic acid], for which the Ki in data set [1] (setting [5]) is over 100 µM.

On to `N[C@@H](CSSC[C@H](N)C(=O)O)C(=O)O` [L-Cystine], for which the Ki in data set [1] (setting [5]) was over 100 µM.

In data set [1] (setting [6]), `O=C(O)[C@@H]1CCCCN1` [L-Pipecolic acid] had a Ki of 14 µM. For the molecule `CNCC(=O)O` [Sarcosine], in data set [1] (setting [7]), the inhibitory constant (Ki) stood at 30 µM. For `CCCC[C@@H](N)C(=O)O` [D-Norleucine], in data set [1] (setting [5]), the Ki was over 100 µM.

`N[C@@H](CC(=O)O)C(=O)O` [L-Aspartic acid]: the “inhibition of L-proline uptake (in words)” value (from here on “inhibition”) in data set [1] is on record as “inability”. Moreover, the Ki in data set [1] (setting [5]) is over 100 µM. `N[C@@H](Cc1ccc(O)cc1)C(=O)O` [L-Tyrosine]: the Ki in data set [1] (Ki values in excess of 100 μM (inhibition of proline uptake)) is over 100 µM. Consider `CC(C)C[C@H](N)C(=O)O` [L-Leucine], for which, in data set [1] (setting [5]), the Ki was over 100 µM. Regarding `O=C(O)c1ccc[nH]1` [Pyrrole-2-carboxylic acid], the Ki in data set [1] (setting [5]) was over 100 µM. Consider `O=C(O)[C@@H]1C[C@@H](O)CN1` [Hydroxyproline], for which, in data set [1] (setting [5]), the Ki is over 100 µM. On the same count and under the same terms, the value for `NC1(C(=O)O)CC1` [1-Amino-1-cyclopropane carboxylic acid] was over 100 µM; that for `NC(=O)C[C@H](N)C(=O)O` [L-Asparagine] was over 100 µM. Take `O=C(O)[C@H]1CN[C@H](C(=O)O)C1` [L-Trans-2,4-PDC, trans-L-pyrrolidone-2,4-dicarboxylate]: the “inhibition” value in data set [1] is “none of the excitatory amino acid analogs examined, including the specific L-glutamate uptake blocker, trans-L-pyrrolidone-2, 4-dicarboxylate (L-trans-2,4-PDC) (Bridges et al., 1991), significantly inhibited L-proline uptake”. Moreover, in data set [1] (setting [5]), the Ki is over 100 µM. For `N[C@H](CC(=O)O)C(=O)O` [D-Aspartic acid], the Ki in data set [1] (setting [5]) is over 100 µM. Moreover, the “transport induced by the transporter cDNA (in words)” value in data set [3] is “did not induce transport”. With `N[C@H](C(=O)O)c1cc(=O)[nH]o1` [Ibotenic acid], the Ki in data set [1] (setting [5]) is over 100 µM. In the case of `C[C@H](N)C(=O)O` [L-Alanine], the Ki in data set [1] (setting [5]) is over 100 µM. `N[C@@H](Cc1ccccc1)C(=O)O` [L-Phenylalanine]: the affinity in data set [1] (setting [6]) corresponds to a Ki of 48 µM. As to `NC(=O)CC[C@H](N)C(=O)O` [L-Glutamine], the Ki in data set [1] (setting [5]) was over 100 µM. For the molecule `O=C1CC[C@@H](C(=O)O)N1` [L-Pyroglutamic acid], the Ki in data set [1] (setting [5]) was over 100 µM.

For the molecule `NCCCC(=O)O` [GABA, gammaaminobutyric acid], in data set [1] (setting [5]), the Ki was over 100 µM. For `NCC(=O)O` [Glycine], the inhibition constant (Ki) in data set [1] (setting [5]) was over 100 µM. Still for that read-out and setting: to `CC(=O)N1CCC[C@H]1C(=O)O` [N-acetylproline] belongs over 100 µM; to `O=C(O)[C@H]1CCCN[C@H]1C(=O)O` (racemic) [(+/-)cis-2,3-piperidine dicarboxylic acid], over 100 µM; to `N[C@@H](Cn1oc(=O)[nH]c1=O)C(=O)O` [Quisqualic acid], over 100 µM. In the case of `NC1CCN(O)C1=O` (stereo not drawn) [HA-966, 3-Amino-1-hydroxy-2-pyrrolidone], in data set [1] (setting [5]), the Ki is over 100 µM. Turning to `NC(=O)[C@@H]1CCCN1` [L-Prolinamide], the Ki in data set [1] (setting [5]) was over 100 µM.

With `O=C(O)[C@@H]1CCN1` [L-Azetidine-2-carboxylic acid], the Ki was 115 µM in data set [1] (setting [7]) and over 100 µM in data set [1] (setting [5]).

In data set [1] (setting [6]), `N[C@@H](Cc1c[nH]cn1)C(=O)O` [L-Histidine] showed an inhibition constant (Ki) of 83 µM. As to `N[C@@H](CO)C(=O)O` [L-Serine], the Ki in data set [1] (setting [5]) is over 100 µM. On the same count and under the same terms, to `NCCCC[C@H](N)C(=O)O` [L-Lysine] belongs over 100 µM.

Molecule `CCCC[C@H](N)C(=O)O` [L-Norleucine] showed a Ki in data set [1] (setting [6]) of 37 µM. In the case of `N[C@@H](CCC(=O)O)C(=O)O` [L-Glutamic acid], the “inhibition” value in data set [1] was “inability”. Further, in data set [1] (setting [5]), the Ki is over 100 µM. Besides, the “transport induced by the transporter cDNA (in words)” value in data set [3] was “did not induce transport”. Turning to `N=C(N)NCCC[C@H](N)C(=O)O` [L-Arginine], the Ki in data set [1] (setting [5]) is over 100 µM.

For `O=C(O)CNC(=O)[C@@H]1CCCN1` [Prolylglycine] (H-Pro-Gly-OH), in data set [1] (setting [5]), the Ki is over 100 µM.

With `CC(C)[C@H](N)C(=O)O` [L-Valine], in data set [1] (setting [5]), the Ki was over 100 µM.

Take `COC(=O)[C@@H]1CCCN1` [L-Proline methyl ester]: the Ki in data set [1] (setting [5]) is over 100 µM. For the molecule `CN[C@H](CC(=O)O)C(=O)O` [N-methyl-D-aspartate], in data set [1] (setting [5]), the Ki is over 100 µM. Turning to `N[C@@H](Cc1c[nH]c2ccccc12)C(=O)O` [L-Tryptophan], the Ki in data set [1] (setting [5]) was over 100 µM. For the molecule `C[C@@H](O)[C@H](N)C(=O)O` [L-Threonine], in data set [1] (setting [5]), the Ki is over 100 µM.

Consider `N[C@@H](CS)C(=O)O` [L-Cysteine], for which the affinity in data set [1] (setting [6]) corresponds to a Ki of 91 µM. As for `O=C(O)[C@H]1CCCN1` [D-Proline], the Ki in data set [1] (Ki (inhibition of L-[3H]proline transport)) and in data set [1] (setting [5]) was over 100 µM in each case.

B1: high affinity, Na^+ -dependent rat brain L-proline transporter (Rattus norvegicus) (protein)
chain: T1 sequence (P28573 1-637)
Turning to B1, in data set [4], the Km is 9.7 µM.
